Source: PubChem BioAssay AID330 (DTP/NCI, 2004)
Inconclusive results and toxic doses are left out.

Tested on: P388 leukemia ip, CD2F1 mice, survival T/C
Assay: NCI In Vivo Anticancer Drug Screen. Data for tumor model P388 Leukemia (intraperitoneal) in CD2F1 (CDF1) mice
Conditions: endpoint: median survival time, higher = longer survival
How it was run: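 Mice carrying the transplanted tumor received test compound or vehicle. Survival was recorded in each group, and the value is the treated-group measurement divided by that of the vehicle-treated control group.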

[1] = dose: 50.0 mg/kg/injection, schedule: Q01DX005 (ip), vehicle: Klucel (hydroxypropylcellulose) (HPC)
[2] = dose: 100.0 mg/kg/injection, schedule: Q01DX005 (ip), vehicle: Klucel (hydroxypropylcellulose) (HPC)
[3] = dose: 200.0 mg/kg/injection, schedule: Q01DX005 (ip), vehicle: Klucel (hydroxypropylcellulose) (HPC)

In the case of `CCCC1OCC(CC)C(CCC)O1` (stereo not given), the T/C (dose: 100.0 mg/kg/injection, schedule: Q01DX009 (ip), vehicle: saline with Tween-80) is reported as 100 % of control, the T/C (dose: 100.0 mg/kg/injection, schedule: Q04DX003 (ip), vehicle: saline sonified) is reported as 100 % of control and the T/C (dose: 200.0 mg/kg/injection, schedule: Q01DX009 (ip), vehicle: saline with Tween-80) is reported as 100 % of control. The T/C (dose: 200.0 mg/kg/injection, schedule: Q04DX003 (ip), vehicle: saline sonified) was 109 % of control, the T/C (dose: 400.0 mg/kg/injection, schedule: Q01DX009 (ip), vehicle: saline with Tween-80) was 91 % of control and the T/C (dose: 400.0 mg/kg/injection, schedule: Q04DX003 (ip), vehicle: saline sonified) was 109 % of control.

For `CSC(=S)NN=C(c1ccccc1)c1ccccc1`, the T/C (dose: 0.78 mg/kg/injection, schedule: Q01DX009 (ip), vehicle: saline) was 102 % of control, the T/C (dose: 1.56 mg/kg/injection, schedule: Q01DX009 (ip), vehicle: saline) was 102 % of control and the T/C (dose: 3.12 mg/kg/injection, schedule: Q01DX009 (ip), vehicle: saline) was 100 % of control. For the same molecule, the T/C (dose: 100.0 mg/kg/injection, schedule: Q01DX009 (ip), vehicle: saline) was 113 % of control and the T/C (dose: 200.0 mg/kg/injection, schedule: Q01DX009 (ip), vehicle: saline) was 96 % of control.

For `OCCNc1cc(Cl)c(N=C2N(Cc3ccccc3)CCN2Cc2ccccc2)c(Cl)c1`, the T/C [1] was 102 % of control, the T/C [2] was 97 % of control and the T/C [3] was 100 % of control.

`O=C1c2ccccc2C(=O)N1/N=N/N1C(=O)c2ccccc2C1=O` was tested, and the T/C (dose: 25.0 mg/kg/injection, schedule: Q01DX005 (ip), vehicle: Klucel (hydroxypropylcellulose) (HPC)) was 99 % of control, the T/C [1] was 102 % of control and the T/C [2] was 110 % of control. The T/C [3] was 106 % of control.

For `COc1cccc2c1C(=O)c1c(O)c3c(c(O)c1C2=O)C[C@@](O)(C(=O)CO)C[C@@H]3OC1CC(NC(C)=O)C(O)C(C)O1` (stereo not given in full), the T/C (dose: 0.2 mg/kg/injection, schedule: Q01DX009 (ip), vehicle: water) was 96 % of control, the T/C (dose: 0.39 mg/kg/injection, schedule: Q01DX009 (ip), vehicle: water) was 107 % of control and the T/C (dose: 0.78 mg/kg/injection, schedule: Q01DX009 (ip), vehicle: water) was 116 % of control. The T/C (dose: 1.56 mg/kg/injection, schedule: Q01DX009 (ip), vehicle: water) was 122 % of control, the T/C (dose: 3.13 mg/kg/injection, schedule: Q01DX009 (ip), vehicle: water) was 120 % of control and the T/C (dose: 25.0 mg/kg/injection, schedule: Q01DX009 (ip), vehicle: other) was 156 % of control. For the same molecule, the T/C (dose: 50.0 mg/kg/injection, schedule: Q01DX009 (ip), vehicle: other) was 195 % of control, the T/C (dose: 50.0 mg/kg/injection, schedule: Q01DX009 (ip), vehicle: water) was 172 % of control and the T/C (dose: 100.0 mg/kg/injection, schedule: Q01DX009 (ip), vehicle: other) was 201 % of control. The T/C (dose: 200.0 mg/kg/injection, schedule: Q01DX009 (ip), vehicle: other) was 192 % of control.

For `CCCC/C=C\CCCCCCCCCC1=C(O)C(=O)C=C(OC)C1=O`, the T/C (dose: 25.5 mg/kg/injection, schedule: Q01DX005 (ip), vehicle: Klucel (hydroxypropylcellulose) (HPC)) was 116 % of control.

For `CC(C)(C)c1cc(CO)c(Sc2c(CO)cc(C(C)(C)C)cc2CO)c(CO)c1`, the T/C (dose: 12.5 mg/kg/injection, schedule: Q01DX001 (ip), vehicle: saline with Tween-80) was 92 % of control, the T/C (dose: 25.0 mg/kg/injection, schedule: Q01DX001 (ip), vehicle: saline with Tween-80) was 100 % of control and the T/C (dose: 50.0 mg/kg/injection, schedule: Q01DX001 (ip), vehicle: saline with Tween-80) was 95 % of control.

For `Cn1c(=O)[nH]c2nnc(-c3ccccc3)nc2c1=O`, the T/C (dose: 50.0 mg/kg/injection, schedule: Q01DX009 (ip), vehicle: Klucel (hydroxypropylcellulose) (HPC)) was 107 % of control and the T/C (dose: 100.0 mg/kg/injection, schedule: Q01DX009 (ip), vehicle: Klucel (hydroxypropylcellulose) (HPC)) was 106 % of control.

In the case of `O=C1C=CC(=O)C=C1`, the T/C (dose: 3.12 mg/kg/injection, schedule: Q04DX003 (ip), vehicle: saline with Tween-80) is reported as 101 % of control and the T/C (dose: 6.25 mg/kg/injection, schedule: Q04DX003 (ip), vehicle: saline with Tween-80) is reported as 99 % of control.

With `CC1(C)C(C(=O)/C=C/c2ccccc2)C1[N+](=O)[O-]` (stereo not given) the T/C (dose: 50.0 mg/kg/injection, schedule: Q04DX003 (ip), vehicle: Klucel (hydroxypropylcellulose) (HPC)) was 96 % of control, the T/C (dose: 100.0 mg/kg/injection, schedule: Q04DX003 (ip), vehicle: Klucel (hydroxypropylcellulose) (HPC)) was 96 % of control and the T/C (dose: 200.0 mg/kg/injection, schedule: Q04DX003 (ip), vehicle: Klucel (hydroxypropylcellulose) (HPC)) was 100 % of control. The T/C (dose: 400.0 mg/kg/injection, schedule: Q04DX003 (ip), vehicle: Klucel (hydroxypropylcellulose) (HPC)) was 101 % of control.
